Source: patent US10533018B2, “Antimicrobial prochelators to target drug-resistant bacteria and methods of making and using the same” (Duke University, priority 2015, dated 2020)
Where two headings read alike, the source gives them in different places.

What was measured:
[1] = test system: clinical isolates of Klebsiella pneumonia (Klebs); test: Broth microdilution in Klebs clinical isolates; assay type: cell-based; details: Klebsiella pneumoniae, LB broth, read-out: IC50
Source text: (§1) Bacterial culture reagents including LB broth (Lennox), agar-agar, ampicillin, and ceftriaxone were purchased from Sigma Aldrich Corp. The Escherichia coli (E. coli) K12 strain HB101 and pGLO E. coli transformation kit purchased from Bio-Rad Laboratories Inc. HB101 was transformed with the bla gene via the pGLO plasmid. The bla gene encodes for a TEM-1 β-lactamase that imparts penicillin resistance to the mutant E. coli K-12 strain (+Bla). Strains E. coli UTI89, [27] pCOM-GFP-transformed E. coli UTI89 (pCOM-GFP), [28] and Methicillin-Resistant Staphylococcus aureus (MRSA) clone USA300 [29] have been previously described. The Extended-Spectrum β-Lactamase (ESBL) E. coli, Klebsiella pneumonia (Klebs), and Pseudomonas aeruginosa (Pseudo) strains were clinical isolates acquired deidentified from Duke Hospital and tested for antibiotic susceptibility in the Clinical Microbiology Laboratory using standard clinical susceptibility methods.
(§2) Cultures were incubated on LB (Lennox, Sigma) agar at 37° C. in ambient atmospheric composition. Before beginning an experiment, a single bacterial colony grown on LB agar was resuspended in 2 mL LB broth and incubated overnight to form a turbid cell suspension. The overnight culture was diluted 1:100 in LB and used immediately as the working culture. To assess the antibacterial activity of compounds, the working bacterial culture was aliquoted in a clear, flat-bottomed, 96-well polystyrene plate (Costar) and the compound of interest was added in 2-fold serial dilution from 500 to 1 μM. Plates were covered with a breathable sealing film (Aeroseal, Genesee Scientific) and incubated at 37° C. in ambient atmospheric composition with shaking at 200 rpm. Optical density at 600 nm was recorded after 4 h and 20 h for each well using a standard OD600 protocol with LB serving as the blank. The resulting dose-response curves were fit to a nonlinear regression in GraphPad Prism Version 6 to calculate the IC50 of DB4-51 in each strain.

[2] = test system: susceptible E. coli HB101 K-12 (no β-lactamase); test: Broth microdilution (preliminary, Table 1), susceptible K-12; assay type: cell-based, Escherichia coli; details: Escherichia coli; Susceptable K-12 E. coli; LB; OD600; preliminary results
Experimental: (§3) In order to determine the antibiotic activity of DB4-51, a debilitated strain of Escherichia coli (HB101 K-12) was transformed with the pGLO plasmid from Bio-Rad in order to express β-lactamase. This transformation was confirmed by growing on a selective medium containing 100 μg/ml ampicillin in Lennox LB with 1.5% agar. A broth microdilution assay was employed to determine the relative activity of DB4-51 against susceptible (HB 101 K-12, no β-lactamase) and resistant (HB 101 K-12 transformed to express β-lactamase) E. coli. Using Lennox LB as the medium. serial dilutions of the test compounds were performed in a 96-well plate and then inoculated with E. coli before incubating for 16-20 hours at 35° C. The bacterial growth was monitored by recording each well's absorbance at 600 nm (OD600.) The OD600 values of E. coli suspensions incubated with various compounds were compared in order to assess their activities.
(§4) FIG. 7: OD600 of susceptible and resistant K-12 E. coli cultures against DB4-51 and known antibiotics as a function of concentration. Ampicillin has a penicillin core and cephalexin has a cephalosporin core. Cultures were grown in LB broth at 37° C. while shaking at 200 rpm for 18 hours and then diluted to an OD600 of 0.005 before adding the compounds. Plates were grown at 35° C. while shaking at 200 rpm and the OD600 was recorded after 18 hours.
(§5) Table 1: Calculated IC50 values for DB4-51, cephalexin, ampicillin, and pyrithione. These values were derived by fitting the data to a log dose-response curve and reporting the concentration corresponding to half the maximum OD600 value for each compound.

[3] = test system: resistant E. coli HB101 K-12 transformed to express β-lactamase; test: microbe, parasite or virus in culture; assay type: cell-based, Escherichia coli; details: Escherichia coli
Experimental: as §3, with “Using Lennox LB as the medium. serial dilutions of the test compounds were performed in a 96-well plate and then inoculated with E. coli before incubating for 16-20 hours at 35° C.” left out
as §4, with “Plates were grown at 35° C. while shaking at 200 rpm and the OD600 was recorded after 18 hours.” left out
as §5

[4] = test system: Klebsiella pneumonia (Klebs); test: Broth microdilution growth inhibition (OD600); assay type: cell-based; details: for IC50: Klebsiella pneumoniae
Source text: as §1, §2
(§6) The ability of DB4-162 to inhibit bacterial growth was assessed by a traditional broth microdilution method that assesses the turbidity of liquid cultures in the presence of varying concentrations of the compound. As described above for DB4-51, the antibacterial properties of the prochelator DB4-162 were assessed in non-pathogenic lab-strain HB101K-12 E. coli and compared to the pGLO-transfected mutant HB101K-12 E. coli that express β-lactamase. Clinically relevant pathogenic bacteria were also screened, including UTI89 E. coli, pCOM transfected UTI89 E. coli (pCOM), extended spectrum β-lactamase (ESBL) E. coli, methicillin-resistant Staphylococcus aureus (MRSA), and Klebsiella pneumonia (Klebs). In addition to being naturally resistant to many β-lactam antibiotics, MRSA can produce a number of β-lactamases. […] It should be noted that all of the bacteria tested are gram-negative except for gram-positive MRSA.
(§7) The goal of this screen was to calculate the IC50 of the prochelator in a series of pathogenic bacteria and compare these values to the IC50 of known antibiotics in those same strains to determine the relative effectiveness of DB4-162 against the drug-resistant and drug-susceptible bacteria in comparison to current antibiotic treatment options. Bacterial growth was monitored in LB broth at 37° C. in the presence and absence of DB4-162 for 20 hours. A concentration gradient of DB4-162 from 500 to 0 μM was used to screen all 7 strains of bacteria and the dose-response curves were fit to a […] to calculate the IC50 of DB4-162 in each strain. These IC50 values are an approximation of how effectively DB4-162 inhibits the growth of each bacterial strain in vitro.
(§8) IC50 values for ampicillin were calculated via broth microdilution in LB broth only. Values are listed as the mean followed by the 95% confidence interval about the mean. Mean and confidence intervals were calculated from a variable slope, nonlinear regression fit to the dose-response OD600 data. […]

[5] = test system: Methicillin-Resistant Staphylococcus aureus (MRSA); test: microbe, parasite or virus in culture; assay type: cell-based; details: for IC50: Staphylococcus aureus
Source text: as §1, §2, §6, §7, §8

UTI89 E. coli = test: Broth microdilution growth inhibition (OD600); assay type: cell-based, Escherichia coli; details: for IC50: Escherichia coli, UTI89 E. coli
Source text: as §1, §2, §6, §7, §8

+Bla K-12 E. coli = test: microbe, parasite or virus in culture; assay type: cell-based, Escherichia coli; details: for IC50: Escherichia coli, +Bla K-12 E. coli
Source text: as §1, §2, §6, §7, §8

−Bla K-12 E. coli = test: microbe, parasite or virus in culture; assay type: cell-based, Escherichia coli; details: for IC50: Escherichia coli, −Bla K-12 E. coli, read-out: IC50
Source text: as §1, §2, §6, §7, §8

E. coli = assay type: cell-based; details: high concentrations (>125 μM)
Source text: Further evidence for the influence of bioavailable copper on the IC50 of DB4-51 was obtained by using a checkerboard assay. […] Serial dilutions of DB4-51 in LB were arrayed against dilutions of chelator (BCS and EDTA). The antagonism exists between our prochelator, DB4-51, and the strong, extracellular chelators BCS and EDTA. […] However, at lower concentrations, EDTA works antagonistically with DB4-51 by restoring bacterial growth. This trend further underscores the influence that copper and potentially other metals have on the growth inhibitory activity of DB4-51.

[6] = Calcein fluorescence assay for Cu competition; assay type: physicochemical; details: 2 μM calcein + 2.4 μM CuCl2, pH 7.4 PBS; 20 μM (10 equivalents) compound alone; 1 h
Experimental: FIG. 11: To solutions of 2 μM calcein in pH 7.4 PBS was added 2.4 μM CuCl2 and the samples were fully equilibrated at room temperature for 2 hours. Next, 20 μM TAT, 20 μM DB4-162, 0.1 units/mL β-lactamase were added and the fluorescence at 500 nm was recorded after one hour.
A calcein fluorescence assay for metal competition was utilized in order to evaluate the relative metal-binding affinity of DB4-51 compared to PT. The fluorescence intensity of the probe calcein is quenched by more than 90% upon binding Cu^2+. […] However, when incubated with 10 equivalents of DB4-51 and 0.1 units/mL Type III β-lactamase from Enterobacter cloacae, there is an 85% return in calcein fluorescence, which correlates well with the 90% return observed for PT itself at the same concentration.
FIG. 4: Relative Cu binding assay with DB4-51 and PT against calcein. Solutions of 2 μM calcein and 2.4 μM CuCl2 in pH 7.4 PBS were equilibrated at room temperature for 2 hours prior to addition of 20 μM PT, 20 μM DB4-51, and/or 0.1 units/mL β-lactamase (Bla).
The calcein assay was utilized in order to assess the relative copper chelating ability of the prochelator and TAT. The fluorescence emission of calcein is quenched by more than 90% in the presence of 1.2 equivalents of CuCl2 (FIG. 11). […] The addition of 0.1 units/mL β-lactamase alone has no effect on the quenched fluorescence signal of the Cu-calcein solution. […] However, when incubated with 10 equivalents of DB4-162 and 0.1 units/mL β-lactamase there is a 90% return in calcein fluorescence. […] While it is unclear why 10 equivalents of TAT are insufficient to out-compete calcein for copper, it may be related to the propensity of TAT to form other species in aqueous media.

ESBL E. coli = test: microbe, parasite or virus in culture; assay type: cell-based, Escherichia coli; details: Escherichia coli, ESBL E. coli; LB broth
Source text: as §1, §2, §6, §7, §8

pCOM E. coli = test: microbe, parasite or virus in culture; assay type: cell-based, Escherichia coli; details: Escherichia coli, pCOM E. coli
Source text: as §1, §2, §6, §7, §8

Work on `CO/N=C(\C(=O)N[C@@H]1C(=O)N2C(C(=O)O)=C(CSc3nc(=O)c(=O)[nH]n3C)CS[C@H]12)c1csc(N)n1` [Ceftriaxone] yielded an IC50 ([1]; Klebs Isolate 1) of 0.4 µM, an IC50 ([1]; Klebs Isolate 2) of 0.7 µM and an IC50 ([1]; Klebs Isolate 3) of 2 µM. The IC50 ([1]; Klebs Isolate 4) was 1 µM, the IC50 ([1]; Klebs Isolate 5) was 0.1 µM and the IC50 ([1]; Klebs Isolate 6) was 0.3 µM. For the same molecule, the IC50 ([1]; Klebs Isolate 7) was 0.3 µM, the IC50 ([1]; Klebs Isolate 8) was 0.1 µM and the IC50 ([1]; Klebs Isolate 9) was 73 µM. For the same molecule, the IC50 ([1]; Klebs Isolate 10) was 0.03 µM, the IC50 ([1]; Klebs Isolate 11) was 0.01 µM and the IC50 ([1]; Klebs Isolate 12) was 0.1 µM. The IC50 ([1]; Klebs Isolate 13) was 1 µM.
Work on `CC1=C(C(=O)O)N2C(=O)[C@@H](NC(=O)[C@H](N)c3ccccc3)[C@H]2SC1` [Cephalexin] yielded an IC50 [2] of 26 µM and an IC50 [3] of 33 µM.
With `[Cl][Cu][Cl]` [CuCl2] the reduction of growth ([4]; concentrations up to 500 μM) was “less than 20%”, the reduction of growth ([5]; concentrations up to 500 μM) was “less than 20%” and the reduction of growth (UTI89 E. coli; UTI89, concentrations up to 500 μM) was “less than 20%”. The increase of growth (+Bla K-12 E. coli; K-12 E. coli (+Bla), 10 μM supplemental CuCl2) was 5-20% and the increase of growth (−Bla K-12 E. coli; K-12 E. coli (−Bla), 10 μM supplemental CuCl2) was 5-20%.
For `O=C(O)CN(CCN(CC(=O)O)CC(=O)O)CC(=O)O` [EDTA, Ethylenediaminetetraacetic acid], the “effect on bacterial growth” value (E. coli) was “some inhibition of bacterial growth”.
Work on `Cc1csc(=S)n1O` [TAT, 3-hydroxy-4-methyl-2(3H)-thiazolethione] yielded an IC50 ([4]; LB + 10 μM CuCl2) of 26 µM, an IC50 ([4]; LB + 500 μM BCS) of 51 µM and an IC50 ([4]; LB broth) of 14 µM. The IC50 ([5]; LB + 10 μM CuCl2) was 10 µM, the IC50 ([5]; LB + 500 μM BCS) was 29 µM and the IC50 ([5]; LB broth) was 23 µM. The “return in calcein fluorescence” value [6] was 30%, the IC50 (UTI89 E. coli; LB + 10 μM CuCl2) was 9 µM and the IC50 (UTI89 E. coli; LB + 500 μM BCS) was 38 µM. For the same molecule, the IC50 (UTI89 E. coli; LB broth) was 6 µM, the IC50 (+Bla K-12 E. coli; LB + 10 μM CuCl2) was 38 µM and the IC50 (+Bla K-12 E. coli; LB + 500 μM BCS) was 70 µM. It also gave an IC50 (+Bla K-12 E. coli; LB broth) of 36 µM, an IC50 (ESBL E. coli) of 41 µM and an IC50 (pCOM E. coli; LB + 10 μM CuCl2) of 7 µM. The IC50 (pCOM E. coli; LB + 500 μM BCS) was 28 µM, the IC50 (pCOM E. coli; LB broth) was 6 µM and the IC50 (−Bla K-12 E. coli; LB + 10 μM CuCl2) was 36 µM. For the same molecule, the IC50 (−Bla K-12 E. coli; LB + 500 μM BCS) was 70 µM and the IC50 (−Bla K-12 E. coli; LB broth) was 23 µM.
